Tests used:
Human TLR2 = biological target: T1, Human TLR2 (Homo sapiens, UniProt O60603); assay: Human TLR antagonist screening, NF-κB SEAP reporter in HEK293 cells; assay type: cell-based; settings: antagonist mode, test article 1 μM, +HKLM 1 × 10^6 cells/mL, No Sample 6, Control− 1
T1 construct: expressed in transfected cells; host or cells: HEK293
Procedure: Toll-Like Receptor (TLR), NOD-Like Receptor (NLR) and C-Type Lectin Receptor (CLR) stimulation were tested by assessing NF-κB activation in HEK293 cells expressing a given TLR, NLR or CLR. The activity of the test articles was tested at one concentration and compared to control ligands. These steps were performed in triplicate. TLR2: […] Antagonist: 1×10^6 cells/mL: In a 96-well plate (200 μL total volume) containing the appropriate cells (50,000-75,000 cells/well), 20 μL of the test article or the positive control ligand was added to the wells. For the antagonist assay, the test article was incubated with the cells, at 37° C. with 5% CO2, for 30 minutes prior to the addition of the positive control ligand to the wells. The media added to the wells was designed for the detection of NF-κB induced SEAP expression. After a 16-24 hr incubation the optical density (OD) was read at 650 nm on a Molecular Devices SpectraMax 340PC absorbance detector. Fold induction (ratio of average induced value to average non-induced value) was determined for each TLR, NOD1, NOD2, Dectin-1a, Dectin-1b.

hTLR9 = biological target: T2, hTLR9 (Homo sapiens, UniProt Q9NR96); assay: as above; assay type: cell-based; settings: antagonist mode, test article 1 μM, +ODN 2006 500 ng/ml; No Sample 7, Control− 1
T2 construct: expressed in transfected cells; host or cells: HEK293
T2 sequence (Q9NR96 26-1032): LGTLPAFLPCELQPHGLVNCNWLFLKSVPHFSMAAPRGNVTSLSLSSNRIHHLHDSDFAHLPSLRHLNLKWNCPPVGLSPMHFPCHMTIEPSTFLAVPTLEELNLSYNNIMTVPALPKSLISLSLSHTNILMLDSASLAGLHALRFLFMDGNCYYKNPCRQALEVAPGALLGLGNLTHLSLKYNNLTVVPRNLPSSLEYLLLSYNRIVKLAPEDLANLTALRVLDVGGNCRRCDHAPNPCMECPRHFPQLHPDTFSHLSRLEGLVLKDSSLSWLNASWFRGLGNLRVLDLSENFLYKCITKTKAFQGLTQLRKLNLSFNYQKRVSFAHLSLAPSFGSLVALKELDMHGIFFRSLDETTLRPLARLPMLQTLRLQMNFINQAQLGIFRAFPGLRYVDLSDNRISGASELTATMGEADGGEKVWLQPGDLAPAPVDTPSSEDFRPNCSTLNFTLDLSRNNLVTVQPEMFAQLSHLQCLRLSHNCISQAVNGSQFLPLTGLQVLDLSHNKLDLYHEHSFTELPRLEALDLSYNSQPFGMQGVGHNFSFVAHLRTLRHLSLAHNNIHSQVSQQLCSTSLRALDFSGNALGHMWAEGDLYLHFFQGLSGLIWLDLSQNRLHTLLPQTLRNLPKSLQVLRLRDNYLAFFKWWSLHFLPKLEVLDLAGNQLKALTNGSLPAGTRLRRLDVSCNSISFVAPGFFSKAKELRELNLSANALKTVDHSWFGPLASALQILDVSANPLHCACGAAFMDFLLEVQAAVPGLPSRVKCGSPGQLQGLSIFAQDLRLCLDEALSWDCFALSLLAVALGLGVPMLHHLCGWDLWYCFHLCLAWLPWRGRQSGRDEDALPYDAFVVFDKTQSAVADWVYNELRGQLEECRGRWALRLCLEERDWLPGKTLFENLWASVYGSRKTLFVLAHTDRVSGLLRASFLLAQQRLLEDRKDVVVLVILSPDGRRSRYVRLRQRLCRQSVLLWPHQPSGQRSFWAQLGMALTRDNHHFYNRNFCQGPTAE
Procedure: Toll-Like Receptor (TLR), NOD-Like Receptor (NLR) and C-Type Lectin Receptor (CLR) stimulation were tested by assessing NF-κB activation in HEK293 cells expressing a given TLR, NLR or CLR. The activity of the test articles was tested at one concentration and compared to control ligands. These steps were performed in triplicate. hTLR9: CpG ODN 2006 at 1 μg/mL Antagonist: 500 ng/mL. In a 96-well plate (200 μL total volume) containing the appropriate cells (50,000-75,000 cells/well), 20 μL of the test article or the positive control ligand was added to the wells. For the antagonist assay, the test article was incubated with the cells, at 37° C. with 5% CO2, for 30 minutes prior to the addition of the positive control ligand to the wells. The media added to the wells was designed for the detection of NF-κB induced SEAP expression. After a 16-24 hr incubation the optical density (OD) was read at 650 nm on a Molecular Devices SpectraMax 340PC absorbance detector. Fold induction (ratio of average induced value to average non-induced value) was determined for each TLR, NOD1, NOD2, Dectin-1a, Dectin-1b.

T1 sequence (O60603 21-784): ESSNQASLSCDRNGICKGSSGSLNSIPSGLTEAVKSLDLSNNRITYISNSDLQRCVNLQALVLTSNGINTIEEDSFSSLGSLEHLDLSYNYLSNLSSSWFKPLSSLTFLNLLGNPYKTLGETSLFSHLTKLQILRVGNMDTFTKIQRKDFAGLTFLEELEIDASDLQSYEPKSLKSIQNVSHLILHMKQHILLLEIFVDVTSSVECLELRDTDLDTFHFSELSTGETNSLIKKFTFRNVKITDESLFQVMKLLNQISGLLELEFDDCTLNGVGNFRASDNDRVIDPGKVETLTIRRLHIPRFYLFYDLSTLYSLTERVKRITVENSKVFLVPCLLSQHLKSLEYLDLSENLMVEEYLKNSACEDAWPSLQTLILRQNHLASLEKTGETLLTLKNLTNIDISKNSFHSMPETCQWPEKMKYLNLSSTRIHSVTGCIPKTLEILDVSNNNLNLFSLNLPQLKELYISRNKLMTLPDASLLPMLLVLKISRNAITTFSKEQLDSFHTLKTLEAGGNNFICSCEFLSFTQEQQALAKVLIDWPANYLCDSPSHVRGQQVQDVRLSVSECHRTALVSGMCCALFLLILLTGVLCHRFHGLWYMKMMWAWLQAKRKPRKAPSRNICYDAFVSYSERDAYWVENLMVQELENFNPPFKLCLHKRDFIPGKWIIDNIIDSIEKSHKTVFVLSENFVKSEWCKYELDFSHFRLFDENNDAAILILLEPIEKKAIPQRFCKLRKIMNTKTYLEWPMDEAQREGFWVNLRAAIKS

## CNCCC=C1c2ccccc2CCc2ccccc21 [Nortriptyline]
Human TLR2
  Fold Induction: slight inhibitory effect
Human TLR2; listed as Nor
  Fold Induction: 5
hTLR9
  Fold Induction: slight inhibitory effect

## CN(C)CCC=C1c2ccccc2CCc2ccccc21 [Amitriptyline]
Human TLR2
  Fold Induction: slight inhibitory effect
Human TLR2; listed as Ami
  Fold Induction: 5
hTLR9
  Fold Induction: slight inhibitory effect
